In patent US4522946A, “Dioxy hexahydrobenzo[6,7]cyclohepta[1,2,3-de]isoquinoline derivatives useful as neuroleptic agents” (Ayerst, McKenna & Harrison, Inc., priority 1983, dated 1985):
Structures can show the parent of a compound that is named as a salt.

Key:
[1] = test system: tremorine-induced tremors in mice; assay: antagonism of tremorine-induced tremors (ITIT), lack of cataleptic activity; type: in vivo; settings: intraperitoneal, mg per kg body weight; for ED50: Mus musculus, ip, read-out: ITIT, ED50 (dose which caused a 50% inhibition of tremorine induced tremors)
[2] = test system: conditioned avoidance response; assay: conditioned avoidance response test (CAR), neuroleptic action; type: in vivo; settings: intraperitoneal, mg per kg body weight; for ED50: ip, read-out: CAR, ED50 (dose which caused a 50% failure in avoidance response)
[3] = Sayers and Amsler 1977; cited from earlier work

Br.CC[C@H]1c2c(O)c(O)cc3c2[C@H](CN1C)c1ccccc1CC3 (relative stereo) [Example 23, (3,12b-trans)-3-ethyl-2-methyl-1,2,3,7,8,12b-hexahydrobenzo[6,7]cyclohepta[1,2,3-de]isoquinoline-4,5-diol hydrobromide]
ITIT, ED50 (dose which caused a 50% inhibition of tremorine induced tremors) [1]: 18 ± 7.6 mg/kg, i.p.
CAR, ED50 (dose which caused a 50% failure in avoidance response) [2]: 1.5 ± 0.4 mg/kg, i.p.

CC[C@H]1c2cc(O)c(O)c3c2[C@@H](CN1C)c1ccccc1CC3 (relative stereo) [Example 32, (3,12b-trans)-3-ethyl-2-methyl-1,2,3,7,8,12b-hexahydrobenzo[6,7]-cyclohepta[1,2,3-de]isoquinoline-5,6-diol hydrobromide]
ED50 [1]: 21 ± 1.6 mg/kg
ED50 [2]: 4.2 ± 0.4 mg/kg

CN1C[C@H]2c3ccccc3CCc3c(O)c(O)cc(c32)[C@@H]1Cc1ccccc1 (relative stereo) [Example 33, (3,12b-trans)-2-methyl-3-(phenylmethyl)-1,2,3,7,8,12b-hexahydrobenzo[6,7]-cyclohepta[1,2,3-de]isoquinoline-5,6-diol hydrobromide]
ED50 [1]: 9.2 ± 7.2 mg/kg
ED50 [2]: 2 ± 0.2 mg/kg

CC[C@H]1c2c(O)c(OC)cc3c2[C@@H](CN1C)c1ccccc1CC3 (relative stereo) [Example 44, (3,12b-trans)-3-ethyl-5-methoxy-2-methyl-1,2,3,7,8,12b-hexahydrobenzo[6,7]-cyclohepta[1,2,3-de]isoquinolin-4-ol]
ITIT, ED50 (dose which caused a 50% inhibition of tremorine induced tremors) [1]: 6.8 ± 2.0 mg/kg, i.p.
CAR, ED50 (dose which caused a 50% failure in avoidance response) [2]: 3.0 ± 0.8 mg/kg, i.p.

Br.CC1c2c(O)c(O)cc3c2C(CN1C)c1ccccc1CC3 (stereo not drawn) [Example 22, (3,12b-trans)-2,3-dimethyl-1,2,3,7,8,12b-hexahydrobenzo[6,7]cyclohepta[1,2,3-de]isoquinoline-4,5-diol hydrobromide]
ITIT, ED50 (dose which caused a 50% inhibition of tremorine induced tremors) [1]: 13 ± 10.4 mg/kg, i.p.
CAR, ED50 (dose which caused a 50% failure in avoidance response) [2]: 4.4 ± 2.0 mg/kg, i.p.

Br.CCCC1c2c(O)c(O)cc3c2C(CN1C)c1ccccc1CC3 (stereo not drawn) [Example 24, (3,12b-trans)-2-methyl-3-propyl-1,2,3,7,8,12b-hexahydrobenzo[6,7]cyclohepta[1,2,3-de]isoquinoline-4,5-diol hydrobromide]
ITIT, ED50 (dose which caused a 50% inhibition of tremorine induced tremors) [1]: 11 ± 4.3 mg/kg, i.p.
CAR, ED50 (dose which caused a 50% failure in avoidance response) [2]: 4.4 ± 1.4 mg/kg, i.p.

Br.CC(C)C1c2c(O)c(O)cc3c2C(CN1C)c1ccccc1CC3 (stereo not drawn) [Example 25, (3,12b-trans)-2-methyl-3-(1-methylethyl)-1,2,3,7,8,12b-hexahydrobenzo[6,7]cyclohepta[1,2,3-de]isoquinoline-4,5-diol hydrobromide]
ITIT, ED50 (dose which caused a 50% inhibition of tremorine induced tremors) [1]: 17.5 ± 6.0 mg/kg, i.p.
CAR, ED50 (dose which caused a 50% failure in avoidance response) [2]: 2.4 ± 0.6 mg/kg, i.p.

Br.CN1CC2c3ccccc3CCc3cc(O)c(O)c(c32)C1Cc1ccccc1 (stereo not drawn) [Example 26, (3,12b-trans)-2-metyl-3-(phenylmethyl)-1,2,3,7,8,12b-hexahydrobenzo[6,7]cyclohepta[1,2,3-de]isoquinoline-4,5-diol hydrobromide]
ITIT, ED50 (dose which caused a 50% inhibition of tremorine induced tremors) [1]: 22 ± 5.7 mg/kg, i.p.
CAR, ED50 (dose which caused a 50% failure in avoidance response) [2]: 1.6 ± 0.3 mg/kg, i.p.

COc1cc2c3c(c1O)C(Cc1ccccc1)N(C)CC3c1ccccc1CC2 (stereo not drawn) [Example 37, (3,12b-trans)-5-Methoxy-2-methyl-3-(phenylmethyl)-1,2,3,7,8,12b-hexahydrobenzo[6,7]-cyclohepta[1,2,3-de]isoquinolin-4-ol]
ITIT, ED50 (dose which caused a 50% inhibition of tremorine induced tremors) [1]: 8.2 ± 2.4 mg/kg, i.p.
CAR, ED50 (dose which caused a 50% failure in avoidance response) [2]: 5.4 ± 1.8 mg/kg, i.p.

CN1CCN(C2=Nc3cc(Cl)ccc3Nc3ccccc32)CC1 [clozapine]
neuroleptic action without the extrapyramidal side effects (in words) [3]: have shown this unusual pharmacological profile
